Experiments:
Assay type in all cases: cell-based
[1] = target: T1, human TLR2 (Homo sapiens (Human), UniProt O60603); test: HEK-Blue hTLR2 antagonism assay (SEAP reporter), agonist Pam2CSK4; details: HEK-Blue hTLR2 cells; Pam2CSK4 (TLR2/6 agonist) at approx. 3×EC50; 18 h; 8-point dilutions
Procedure: (§1) Synthetic diacylated lipoprotein (Pam2CSK4, TLR2/6 agonist) and synthetic triacylated lipoprotein (Pam3CSK4, TLR1/2 agonist) were obtained from InvivoGen and were dissolved in endotoxin-free water to a concentration 1 mg/mL, vortexed until complete solubilization, and stored in aliquots at −20° C. Prior to addition to cells, an aliquot of the dissolved ligand was vortexed shortly and then was diluted in medium to 25 ng/mL Pam2CSK4 or 1000 ng/mL Pam3CSK4.
(§2) Test compounds were solubilized fresh to 10-20 mM stocks in DMSO and sonicated for 5-10 minutes in a water bath sonicator. Serial dilutions were prepared in DMSO, and then diluted in medium. The final concentration of DMSO used in the assay was 1%.
(§3) HEK-Blue hTLR2 reporter cells (InvivoGen) are HEK-293 cells stably expressing both the human TLR2 gene and a secreted embryonic alkaline phosphatase (SEAP) reporter construct downstream of NFκB promotor sites. HEK-Blue hTLR2 reporters were cultured according to manufacturer's protocol using Dulbecco's Modified Eagle Medium (DMEM; Gibco) containing 1× GlutaMax (Gibco), 10% heat-inactivated Fetal Bovine Serum (Gibco), Pen-Strep (50 U/mL penicillin, 50 μg/mL streptomycin, Gibco), 100 μg/mL Normocin (InvivoGen), and the selective antibiotic, lx HEK-Blue Selection (InvivoGen). Quanti-Blue reagent (InvivoGen) for detection and quantification of secreted alkaline phosphatase was dissolved in 100 mL of endotoxin-free water, warmed to 37° C. for 30 minutes and then filtered using a 0.2 μm membrane.
(§4) On day 1, 50 μL of each test compound dilution in duplicates or a vehicle control was added to each well of a 96-well plate followed by addition of 150 μL of HEK-Blue hTLR2 cell suspension (1×10^5 cells/well) and incubated at 37° C./5% CO2 for 2 h. Next, 50 μL of an approximate 3×EC50 concentration of each agonist (Pam2CSK4 or Pam3CSK4) was added to the wells containing test compounds or the vehicle control. The plates were then incubated at 37° C./5% CO2 for 18 h. For each assay run, non-treated HEK-Blue hTLR2 cells were treated with serial dilutions of agonists to determine EC50 values for the respective run.
(§5) On day 2, secreted alkaline phosphatase (SEAP) activity was detected in cell culture supernatants. In brief, 20 μL was collected from each well and transferred to a 96-well plate. Next, 200 μL of Quanti-Blue detection reagent was added to each well. Plates were incubated at room temperature for 15 min and SEAP activity was assessed by spectrophotometer OD reading at 655 nm. […] IC50 values were calculated based on 8-point dilutions for each compound.

[2] = target: T1, human TLR2; test: HEK-Blue hTLR2 antagonism assay (SEAP reporter), agonist Pam3CSK4; details: HEK-Blue hTLR2 cells; Pam3CSK4 (TLR1/2 agonist) at approx. 3×EC50; 18 h; 8-point dilutions
Procedure: as §1, §2, §3, §4, §5

[3] = target: human TLR9 (Homo sapiens (Human), UniProt Q9NR96); test: HEK-Blue hTLR9 antagonism assay (SEAP reporter), agonist ODN 2006; details: HEK-Blue hTLR9 cells; ODN 2006 (TLR9 agonist) at approx. 3×EC50; 18 h; exact values 8-point, approximate (~ or <) 4-point dilutions; read-out: IC50 (μM) with ODN2006
Sequence of human TLR9 (Q9NR96 26-1032): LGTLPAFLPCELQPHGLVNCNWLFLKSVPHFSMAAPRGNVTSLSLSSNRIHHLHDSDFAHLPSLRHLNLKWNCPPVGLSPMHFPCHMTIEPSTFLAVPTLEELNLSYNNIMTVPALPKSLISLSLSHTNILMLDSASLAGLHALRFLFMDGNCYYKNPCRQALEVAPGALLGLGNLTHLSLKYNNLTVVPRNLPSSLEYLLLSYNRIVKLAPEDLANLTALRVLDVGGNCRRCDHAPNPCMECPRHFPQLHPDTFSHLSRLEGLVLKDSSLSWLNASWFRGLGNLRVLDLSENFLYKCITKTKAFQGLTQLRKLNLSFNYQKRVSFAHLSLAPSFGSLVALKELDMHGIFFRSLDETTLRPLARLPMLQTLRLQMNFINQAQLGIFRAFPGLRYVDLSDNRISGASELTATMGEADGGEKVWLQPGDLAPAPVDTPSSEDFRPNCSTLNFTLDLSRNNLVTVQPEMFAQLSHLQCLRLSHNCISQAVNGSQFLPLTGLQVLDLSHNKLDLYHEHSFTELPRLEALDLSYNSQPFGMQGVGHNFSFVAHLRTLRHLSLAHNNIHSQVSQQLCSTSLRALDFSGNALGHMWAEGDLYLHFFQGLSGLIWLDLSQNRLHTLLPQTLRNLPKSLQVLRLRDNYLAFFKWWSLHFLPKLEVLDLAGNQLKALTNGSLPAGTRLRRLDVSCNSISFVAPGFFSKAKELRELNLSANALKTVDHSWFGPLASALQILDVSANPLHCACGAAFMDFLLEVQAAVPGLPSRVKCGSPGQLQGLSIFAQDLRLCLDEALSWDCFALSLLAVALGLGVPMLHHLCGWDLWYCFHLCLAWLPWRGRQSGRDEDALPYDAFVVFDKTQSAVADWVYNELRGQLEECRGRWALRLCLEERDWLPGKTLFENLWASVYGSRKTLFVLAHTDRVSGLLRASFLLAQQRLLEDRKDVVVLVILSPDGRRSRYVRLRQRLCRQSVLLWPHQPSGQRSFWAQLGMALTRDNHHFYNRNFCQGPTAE
Procedure: Synthetic ODNs (ODN 2006 (ODN 7909), class B CpG oligonucleotide, TLR9 agonist) was obtained from InvivoGen and was dissolved in endotoxin-free water to a concentration 500 μM, vortexed until complete solubilization, and stored in aliquots at −20° C. Prior to addition to cells, an aliquot of the dissolved ligand was vortexed shortly and then was diluted in medium to 50 μM.
as §2
as §3, with “hTLR9” for “hTLR2”, “TLR9” for “TLR2”, “hTLR9 cells” for “hTLR2 reporters”, “antibiotics, 10 μg/mL Blasticidin (InvivoGen), and 100 μg/mL Zeocin” for “antibiotic, lx HEK-Blue Selection”
as §4, with “hTLR9” for “hTLR2”, “TLR9 agonist, ODN 2006,” for “each agonist (Pam2CSK4 or Pam3CSK4)”, “vehicle-treated” for “non-treated”, “agonist” for “agonists”
On day 2, secreted alkaline phosphatase (SEAP) activity was detected in cell culture supernatants. In brief, 30 μL was collected from each well and transferred to a 96-well plate. Next, 200 μL of Quanti-Blue detection reagent was added to each well. Plates were incubated at 37° C. for 60 min. and SEAP activity was assessed by spectrophotometer OD reading at 655 nm. […] Exact IC50 values were calculated based on 8-point dilutions for each compound. Approximate IC50 values (˜ or <) were calculated based on 4-point dilutions for each compound.

T1 sequence (O60603 21-784): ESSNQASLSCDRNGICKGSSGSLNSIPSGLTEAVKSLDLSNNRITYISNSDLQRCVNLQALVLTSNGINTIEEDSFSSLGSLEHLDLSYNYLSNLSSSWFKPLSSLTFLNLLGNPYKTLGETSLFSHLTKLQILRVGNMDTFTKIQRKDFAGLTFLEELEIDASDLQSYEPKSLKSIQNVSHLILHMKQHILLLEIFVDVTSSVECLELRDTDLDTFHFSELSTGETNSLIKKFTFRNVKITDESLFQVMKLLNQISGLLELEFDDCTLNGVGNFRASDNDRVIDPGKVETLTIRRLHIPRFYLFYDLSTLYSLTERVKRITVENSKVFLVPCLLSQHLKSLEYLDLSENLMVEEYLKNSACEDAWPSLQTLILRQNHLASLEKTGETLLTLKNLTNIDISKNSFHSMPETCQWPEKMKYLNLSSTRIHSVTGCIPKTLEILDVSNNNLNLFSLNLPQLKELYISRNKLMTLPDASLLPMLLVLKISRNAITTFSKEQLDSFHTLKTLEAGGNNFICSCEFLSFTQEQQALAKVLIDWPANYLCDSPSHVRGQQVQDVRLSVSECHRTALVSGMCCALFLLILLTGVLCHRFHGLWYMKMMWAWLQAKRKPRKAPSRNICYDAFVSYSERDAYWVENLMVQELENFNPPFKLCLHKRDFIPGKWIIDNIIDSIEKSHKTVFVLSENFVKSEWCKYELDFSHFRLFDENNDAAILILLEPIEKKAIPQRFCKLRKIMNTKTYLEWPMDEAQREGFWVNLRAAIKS

IC50 [1] | IC50 [2] | IC50 [3] | Compound
6.7 µM | 2.2 µM | ~0.5 µM | O=Cc1cc(C(=O)Nc2nnc(-c3ccccc3)s2)cc(F)c1O [Compound 2, 3-fluoro-5-formyl-4-hydroxy-N-(5-phenyl-1,3,4-thiadiazol-2-yl)benzamide]
0.9 µM | 0.5 µM | 0.2 µM | O=Cc1cc(C(=O)Nc2ncc(-c3ccccc3)s2)cc(F)c1O [Compound 4, 3-fluoro-5-formyl-4-hydroxy-N-(5-phenylthiazol-2-yl)benzamide]
> 100 µM | > 100 µM | > 33 µM | O=Cc1cc(C(=O)Nc2cnc(N3CCCCC3)s2)cc(F)c1O [Compound 7, 3-fluoro-5-formyl-4-hydroxy-N-(2-(piperidin-1-yl)thiazol-5-yl)benzamide]
1.6 µM | 0.9 µM | ~1 µM | O=Cc1cc(NC(=O)c2ncc(-c3ccccc3)s2)cc(F)c1O [Compound 10, N-(3-fluoro-5-formyl-4-hydroxyphenyl)-5-phenylthiazole-2-carboxamide]
9.3 µM | 5.3 µM | – | O=Cc1cc(C(=O)NCCCc2ccc(N3CCCC3)cc2)cc(F)c1O [Compound 144, 3-fluoro-5-formyl-4-hydroxy-N-(3-(4-(pyrrolidin-1-yl)phenyl)propyl)benzamide]
5.9 µM | 2.25 µM | – | CN(C(=O)c1cc(F)c(O)c(C=O)c1)C12CC(c3ccccc3)(C1)C2 [Compound 158, 3-fluoro-5-formyl-4-hydroxy-N-methyl-N-(3-phenylbicyclo[1.1.1]pentan-1-yl)benzamide]
9.29 µM | 4.39 µM | – | O=Cc1cc(COC(=O)Nc2cccc(N3CCCC3)c2)cc(F)c1O [Compound 159, 3-fluoro-5-formyl-4-hydroxybenzyl (3-(pyrrolidin-1-yl)phenyl)carbamate]
38.4 µM | 26.5 µM | – | O=Cc1cc(C(=O)NNc2cccc(Br)c2)cc(F)c1O [Compound 160, N′-(3-bromophenyl)-3-fluoro-5-formyl-4-hydroxybenzohydrazide]
15.8 µM | 9.6 µM | – | O=Cc1cc(C(=O)Nc2cnc(-c3ccnc(N4CCCC4)c3)s2)cc(F)c1O [Compound 168, 3-fluoro-5-formyl-4-hydroxy-N-(2-(2-(pyrrolidin-1-yl)pyridin-4-yl)thiazol-5-yl)benzamide]
17.7 µM | 5.36 µM | – | NS(=O)(=O)c1ccc(-c2nsc(-c3cc(F)c(O)c(C=O)c3)n2)cc1 [Compound 170, 4-(5-(3-fluoro-5-formyl-4-hydroxyphenyl)-1,2,4-thiadiazol-3-yl)benzenesulfonamide]
2.52 µM | 1.03 µM | – | O/N=C\c1cc(-c2nc(-c3ccc(N4CCCC4)cc3)ns2)cc(F)c1O [Compound 171, 3-fluoro-2-hydroxy-5-(3-(4-(pyrrolidin-1-yl)phenyl)-1,2,4-thiadiazol-5-yl)benzaldehyde oxime]
1 µM | 0.5 µM | – | O=Cc1cc(-c2nc(-c3ccc(N4CCCC4)cc3)ns2)cc(F)c1OC(=O)N1CCCC1 [Compound 172, 2-fluoro-6-formyl-4-(3-(4-(pyrrolidin-1-yl)phenyl)-1,2,4-thiadiazol-5-yl)phenyl pyrrolidine-1-carboxylate]
1.5 µM | 0.6 µM | – | O=Cc1cc(-c2nc(-c3ccc(N4CCCC4)cc3)ns2)cc(F)c1OC(=O)N1CCOCC1 [Compound 174, 2-fluoro-6-formyl-4-(3-(4-(pyrrolidin-1-yl)phenyl)-1,2,4-thiadiazol-5-yl)phenyl morpholine-4-carboxylate]
2 µM | 0.6 µM | – | COCCOCC(=O)Oc1c(F)cc(-c2nc(-c3ccc(N4CCCC4)cc3)ns2)cc1C=O [Compound 176, 2-fluoro-6-formyl-4-(3-(4-(pyrrolidin-1-yl)phenyl)-1,2,4-thiadiazol-5-yl)phenyl 2-(2-methoxyethoxy)acetate]
1.6 µM | 0.6 µM | – | C[n+]1ccccc1Oc1c(F)cc(-c2nc(-c3ccc(N4CCCC4)cc3)ns2)cc1C=O [Compound 177, 2-(2-fluoro-6-formyl-4-(3-(4-(pyrrolidin-1-yl)phenyl)-1,2,4-thiadiazol-5-yl)phenoxy)-1-methylpyridinium iodide]
0.8 µM | 0.2 µM | – | COCCN1C(=O)Oc2c(F)cc(-c3nc(-c4ccc(N5CCCC5)cc4)ns3)cc2C1O (stereo not shown) [Compound 179, 8-fluoro-4-hydroxy-3-(2-methoxyethyl)-6-(3-(4-(pyrrolidin-1-yl)phenyl)-1,2,4-thiadiazol-5-yl)-3,4-dihydro-2H-benzo[e][1,3]oxazin-2-one]

Compound | IC50 [1] | IC50 [2] | IC50 [3]
O=Cc1cc(-c2nc(-c3ccc(N4CCCC4)cc3)ns2)cc(F)c1OC(=O)OC1CCOC1 (stereo not shown) [Compound 162, 2-fluoro-6-formyl-4-(3-(4-(pyrrolidin-1-yl)phenyl)-1,2,4-thiadiazol-5-yl)phenyl tetrahydrofuran-3-yl carbonate] | 11.5 µM | 4.3 µM | –
O=Cc1cc(-c2nc(-c3ccc(N4CC(F)(F)C4)cc3)ns2)cc(F)c1O [Compound 169, 5-(3-(4-(3,3-difluoroazetidin-1-yl)phenyl)-1,2,4-thiadiazol-5-yl)-3-fluoro-2-hydroxybenzaldehyde] | 2.5 µM | 1.3 µM | –
CN(C)C(=O)Oc1c(F)cc(-c2nc(-c3ccc(N4CCCC4)cc3)ns2)cc1C=O [Compound 173, 2-fluoro-6-formyl-4-(3-(4-(pyrrolidin-1-yl)phenyl)-1,2,4-thiadiazol-5-yl)phenyl dimethylcarbamate] | 0.9 µM | 0.5 µM | –
CN1CCN(C(=O)Oc2c(F)cc(-c3nc(-c4ccc(N5CCCC5)cc4)ns3)cc2C=O)CC1 [Compound 175, 2-fluoro-6-formyl-4-(3-(4-(pyrrolidin-1-yl)phenyl)-1,2,4-thiadiazol-5-yl)phenyl 4-methylpiperazine-1-carboxylate] | 1.2 µM | 0.3 µM | –
CN1C(=O)Oc2c(F)cc(-c3nc(-c4ccc(N5CCCC5)cc4)ns3)cc2C1O (stereo not shown) [Compound 178, 8-fluoro-4-hydroxy-3-methyl-6-(3-(4-(pyrrolidin-1-yl)phenyl)-1,2,4-thiadiazol-5-yl)-3,4-dihydro-2H-benzo[e][1,3]oxazin-2-one] | 1.2 µM | 0.43 µM | –

Reference: US20240043395A1, “COMPOUNDS AND COMPOSITIONS AS MODULATORS OF TLR SIGNALING” (Neuropore Therapies, Inc., priority 2020, published 2024)
